# ChEMBL document CHEMBL5537136 (J Med Chem, 2024)
# Calls of active or inactive are those of the source. No cut-off for these calls is given here.
# What was measured:
# [1] = biological target: Poly [ADP-ribose] polymerase 2 (Homo sapiens, UniProt Q9UGN5); experiment: Inhibition of PARP2 (unknown origin) measured after 1 hr incubation by microplate reader assay
# [2] = biological target: T1, Poly [ADP-ribose] polymerase tankyrase-1 (Homo sapiens, UniProt O95271); experiment: Inhibition of TNKS1 (unknown origin) measured after 1 hr incubation by microplate reader assay
# T1 sequence (O95271 whole entry): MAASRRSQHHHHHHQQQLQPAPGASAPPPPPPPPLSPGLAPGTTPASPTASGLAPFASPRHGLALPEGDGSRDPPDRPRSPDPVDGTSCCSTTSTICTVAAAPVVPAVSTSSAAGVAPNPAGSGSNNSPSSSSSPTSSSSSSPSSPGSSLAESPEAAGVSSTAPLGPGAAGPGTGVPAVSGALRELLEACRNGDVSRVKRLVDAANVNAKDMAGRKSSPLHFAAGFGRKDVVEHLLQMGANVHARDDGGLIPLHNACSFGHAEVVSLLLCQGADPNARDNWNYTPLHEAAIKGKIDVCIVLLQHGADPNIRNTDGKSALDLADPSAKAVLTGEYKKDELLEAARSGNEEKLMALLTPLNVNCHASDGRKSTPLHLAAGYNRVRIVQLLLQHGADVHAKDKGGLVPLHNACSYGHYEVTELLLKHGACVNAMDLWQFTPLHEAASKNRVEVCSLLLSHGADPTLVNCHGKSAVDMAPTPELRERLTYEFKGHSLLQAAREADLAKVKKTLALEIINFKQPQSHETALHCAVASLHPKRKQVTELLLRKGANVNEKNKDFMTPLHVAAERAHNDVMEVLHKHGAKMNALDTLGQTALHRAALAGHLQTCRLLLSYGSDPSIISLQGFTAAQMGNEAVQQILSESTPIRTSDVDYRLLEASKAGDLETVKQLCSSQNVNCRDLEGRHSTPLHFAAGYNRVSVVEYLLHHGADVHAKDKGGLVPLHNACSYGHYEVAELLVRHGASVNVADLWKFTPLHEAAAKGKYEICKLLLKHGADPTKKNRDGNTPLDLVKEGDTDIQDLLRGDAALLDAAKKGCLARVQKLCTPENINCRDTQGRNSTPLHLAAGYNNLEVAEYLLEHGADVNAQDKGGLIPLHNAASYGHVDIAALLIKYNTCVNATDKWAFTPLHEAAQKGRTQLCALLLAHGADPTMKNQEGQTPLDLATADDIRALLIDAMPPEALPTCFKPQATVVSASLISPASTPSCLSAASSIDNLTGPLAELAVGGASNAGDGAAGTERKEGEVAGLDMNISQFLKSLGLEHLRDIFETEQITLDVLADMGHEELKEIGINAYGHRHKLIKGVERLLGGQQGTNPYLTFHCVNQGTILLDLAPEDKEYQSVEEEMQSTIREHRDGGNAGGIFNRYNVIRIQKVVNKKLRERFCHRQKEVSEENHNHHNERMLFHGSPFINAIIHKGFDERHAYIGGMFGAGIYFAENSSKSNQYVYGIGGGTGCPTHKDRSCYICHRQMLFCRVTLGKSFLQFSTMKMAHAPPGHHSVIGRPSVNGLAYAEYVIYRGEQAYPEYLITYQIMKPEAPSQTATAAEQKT
# [3] = biological target: T2, Protein mono-ADP-ribosyltransferase PARP11 (Homo sapiens, UniProt Q9NR21); experiment: Inhibition of PARP11 (unknown origin) measured after 1 hr incubation by microplate reader assay
# T2 sequence (Q9NR21 whole entry): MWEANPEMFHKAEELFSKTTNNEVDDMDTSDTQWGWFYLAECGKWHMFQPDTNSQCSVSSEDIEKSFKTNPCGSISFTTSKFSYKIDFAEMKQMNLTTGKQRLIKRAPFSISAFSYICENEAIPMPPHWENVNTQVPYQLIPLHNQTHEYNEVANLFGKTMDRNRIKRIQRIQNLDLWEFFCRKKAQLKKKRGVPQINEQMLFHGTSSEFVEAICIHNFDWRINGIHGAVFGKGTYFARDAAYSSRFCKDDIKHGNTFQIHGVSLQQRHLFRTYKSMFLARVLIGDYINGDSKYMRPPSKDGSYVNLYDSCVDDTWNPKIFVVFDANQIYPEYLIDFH
# [4] = Antiproliferative activity against mouse AML12 cells measured after 6 days incubation by MTT assay; assay type: toxicity, cell-based
# [5] = biological target: T3, Protein mono-ADP-ribosyltransferase TIPARP (Mus musculus) (UniProt Q8C1B2); experiment: Inhibition of PARP7 in mouse CT26 cells assessed as increase in TBK1 phosphorylation incubated for 3 days by Western blot analysis; assay type: cell-based; details: dose 0.14-4 µM, time 3.0 day
# T3 sequence (whole entry): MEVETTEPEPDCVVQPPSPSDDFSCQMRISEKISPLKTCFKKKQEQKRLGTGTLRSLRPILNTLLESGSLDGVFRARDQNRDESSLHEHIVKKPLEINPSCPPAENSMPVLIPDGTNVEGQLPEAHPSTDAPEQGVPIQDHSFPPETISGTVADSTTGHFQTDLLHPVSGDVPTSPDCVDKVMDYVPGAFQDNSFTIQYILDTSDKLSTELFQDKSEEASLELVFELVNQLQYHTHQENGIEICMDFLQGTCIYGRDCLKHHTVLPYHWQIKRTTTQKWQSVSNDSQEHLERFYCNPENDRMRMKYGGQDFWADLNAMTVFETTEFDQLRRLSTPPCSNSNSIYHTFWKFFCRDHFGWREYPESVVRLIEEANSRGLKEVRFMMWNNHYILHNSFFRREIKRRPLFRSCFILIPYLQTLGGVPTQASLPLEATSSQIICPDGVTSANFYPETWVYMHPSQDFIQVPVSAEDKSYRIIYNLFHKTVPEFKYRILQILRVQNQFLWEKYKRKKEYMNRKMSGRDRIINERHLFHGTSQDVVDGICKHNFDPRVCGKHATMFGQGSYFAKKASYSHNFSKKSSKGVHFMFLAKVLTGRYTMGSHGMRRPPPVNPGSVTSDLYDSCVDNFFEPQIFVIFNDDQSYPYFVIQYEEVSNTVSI
# [6] = Tmax in ICR mouse at 1 mg/kg, iv measured upto 24 hrs by LC-MS/MS analysis; assay type: ADME, organism-based; details: in vivo
# [7] = Cmax in ICR mouse at 10 mg/kg, IG measured upto 24 hrs by LC-MS/MS analysis; assay type: ADME, organism-based; details: in vivo, po
# [8] = Toxicity in Balb/c mouse bearing mouse CT26 cells assessed as morphological changes in kidney at 6.25 to 25 mg/kg, IG measured after 14 days by hematoxylin and eosin staining based assay; assay type: organism-based; details: in vivo, po, 336 h, dose 6.25-25 mg/kg, time 14 day
# CT26 [9] = experiment: Antitumor activity in immunocompetent mouse CT26 cell bearing Balb/c mouse model assessed as reduction in Ki-67 protein expression level in tumor tissue at 6.25 to 25 mg/kg, IG treated twice a day measured after 14 days; assay type: functional, organism-based; details: dose lower 6.25 mg/kg, dose upper […], time 14.0 day
# CT26 [10] = experiment: Antitumor activity against mouse CT26 cells implanted in immunodeficient Balb/c mouse assessed as inhibition of tumor growth at 25 mg/kg, IG twice daily measured after 10 days relative to control; assay type: functional; details: CT26, po, 240 h, time 10 day, read-out: TGI
# Chain of Poly [ADP-ribose] polymerase 2 (Q9UGN5 whole entry): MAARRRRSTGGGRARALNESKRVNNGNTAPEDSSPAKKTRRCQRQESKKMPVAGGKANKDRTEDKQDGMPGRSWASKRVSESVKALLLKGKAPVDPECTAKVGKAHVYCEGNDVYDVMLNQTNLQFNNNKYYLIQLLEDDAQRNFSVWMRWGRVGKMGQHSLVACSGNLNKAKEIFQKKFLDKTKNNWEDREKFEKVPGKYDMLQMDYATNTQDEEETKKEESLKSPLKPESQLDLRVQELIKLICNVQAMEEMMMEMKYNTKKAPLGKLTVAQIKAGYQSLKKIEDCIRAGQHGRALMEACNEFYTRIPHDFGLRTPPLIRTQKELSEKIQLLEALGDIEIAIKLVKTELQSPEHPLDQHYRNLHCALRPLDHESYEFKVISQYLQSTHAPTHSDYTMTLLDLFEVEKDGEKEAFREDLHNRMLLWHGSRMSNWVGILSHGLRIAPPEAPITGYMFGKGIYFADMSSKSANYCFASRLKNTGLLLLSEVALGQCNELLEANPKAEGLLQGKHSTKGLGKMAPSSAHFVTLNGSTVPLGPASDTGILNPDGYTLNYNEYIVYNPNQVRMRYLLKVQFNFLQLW
structure (smiles),measurement,setting,value
C[C@@H](C(=O)N1CCN(c2ncc(C(F)(F)F)cn2)CC1)n1cc2cccc(C(N)=O)c2n1,IC50,[1],303 nM
same,IC50,[2],901 nM
same,IC50,[3],> 5000 nM
same,IC50 at 6 days,[4],> 50000 nM
same,inhibition,[5],Dose-Dependent Effect
same,Tmax,[6],4.8 min
same,Cmax,[7],7350 ng/mL
same,Activity,[8],Non-Toxic
same,Activity,CT26 [9],Active
same,inhibition in vivo at 25 mg/kg,CT26 [10],4%
